Values of other authors, collected in paper PMC8650797 (The ocular surface, 2020).

Tested on: herpes simplex virus DNA polymerase
Conditions: native peptide; ref [29] Digard et al.

EETRRMLHRAFDTLA
activity in blocking DNA synthesis in vitro: very poor activity
